We go through 61 molecules from ChEMBL document CHEMBL1145407, “Structure-activity relationships of alpha-ketooxazole inhibitors of fatty acid amide hydrolase” (J Med Chem, 2007).

Experiment [1] in a line: Selectivity for rat recombinant FAAH over TGH.
Experiment [2] in a line: Selectivity for rat recombinant FAAH over KIAA1363.
The target of experiment [3] is T1, Fatty-acid amide hydrolase 1 (Rattus norvegicus, UniProt P97612).
T1 sequence (P97612 whole entry): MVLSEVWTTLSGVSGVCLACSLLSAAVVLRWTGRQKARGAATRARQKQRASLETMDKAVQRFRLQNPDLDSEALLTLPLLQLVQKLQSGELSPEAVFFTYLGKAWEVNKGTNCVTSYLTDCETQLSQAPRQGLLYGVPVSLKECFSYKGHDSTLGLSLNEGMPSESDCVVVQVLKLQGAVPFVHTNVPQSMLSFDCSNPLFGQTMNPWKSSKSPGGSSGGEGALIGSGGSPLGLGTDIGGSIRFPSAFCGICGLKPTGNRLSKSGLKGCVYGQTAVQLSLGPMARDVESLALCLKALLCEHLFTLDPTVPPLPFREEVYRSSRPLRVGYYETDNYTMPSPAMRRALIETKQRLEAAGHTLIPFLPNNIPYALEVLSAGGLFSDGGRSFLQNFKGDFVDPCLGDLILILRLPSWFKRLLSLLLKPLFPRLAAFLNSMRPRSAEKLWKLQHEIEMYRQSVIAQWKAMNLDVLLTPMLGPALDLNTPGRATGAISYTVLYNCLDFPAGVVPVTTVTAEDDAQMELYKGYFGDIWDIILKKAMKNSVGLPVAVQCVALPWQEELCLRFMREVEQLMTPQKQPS
Kind of experiment: Inhibition of rat recombinant FAAH expressed in Escherichia coli.

Each structure is given as a SMILES string.

`COC(=O)c1cccc(CCCCCCC(=O)c2ncc(-c3ccccn3)o2)c1`: the Ratio IC50 was 25000 in experiment [1] and more than 250000 in experiment [2]. Besides, in experiment [3], the Ki (as a rule, a dissociation constant, usually derived from enzyme kinetics or from competition with a known ligand) turned out to be 1.9 nM.

Regarding `O=C(COCCCCc1ccccc1)c1ncc(-c2ccccn2)o1`, the Ratio IC50 in experiment [1] was 34; in experiment [2], more than 58. In addition, the Ki in experiment [3] came out at 60 nM.

For the molecule `O=C(CCCCCCc1ccc(C(F)(F)F)cc1)c1ncc(-c2ccccn2)o1`, the values for the Ratio IC50 in experiment [1] and in experiment [2] were 20 and more than 10000, respectively. Besides, in experiment [3], the Ki was found to be 4 nM.

As to `Nc1ccc(CCCCCCC(=O)c2ncc(-c3ccccn3)o2)cc1`, the figures for the Ratio IC50 in experiment [1] and in experiment [2] were 750 and more than 25000, respectively. Further, the Ki in experiment [3] was 3 nM.

For `O=C(CCCCCCc1cccc(Cl)c1)c1ncc(-c2ccccn2)o1`, the Ratio IC50 was 250 in experiment [1] and more than 50000 in experiment [2].

On to `O=C(CCCCCCc1ccc2ccccc2c1)c1ncc(-c2ccccn2)o1`, for which the results for the Ratio IC50 in experiment [1] and in experiment [2] were 0.5 and more than 2500, respectively. Besides, the Ki in experiment [3] stood at 11 nM.

Regarding `O=C(CCCCCCc1ccc(Cl)cc1)c1ncc(-c2ccccn2)o1`, the Ratio IC50 in experiment [1] was 67; in experiment [2] it was more than 3300. Moreover, the Ki in experiment [3] came out at 2.7 nM.

`O=C(CCCCCCc1cccc2ccccc12)c1ncc(-c2ccccn2)o1`: the Ratio IC50 is 30 in experiment [1] and more than 10000 in experiment [2].

As to `COC(=O)c1ccc(CCCCCCC(=O)c2ncc(-c3ccccn3)o2)cc1`, the Ratio IC50 in experiment [1] was 25000; in experiment [2] it was more than 400000. For the same molecule, in experiment [3], the inhibition constant (Ki) is 1.5 nM.

Turning to `O=C(CCCCCCc1ccccc1C(F)(F)F)c1ncc(-c2ccccn2)o1`, the results for the Ratio IC50 in experiment [1] and in experiment [2] were 230 and more than 3300, respectively. In addition, the Ki in experiment [3] was determined as 4 nM.

For `CSc1cccc(CCCCCCC(=O)c2ncc(-c3ccccn3)o2)c1`, the Ratio IC50 in experiment [1] is 30; in experiment [2], more than 10000. For the same molecule, the Ki in experiment [3] stood at 4.2 nM.

Take `CS(=O)(=O)c1cccc(CCCCCCC(=O)c2ncc(-c3ccccn3)o2)c1`: the figures for the Ratio IC50 in experiment [1] and in experiment [2] were 1000 and more than 25000, respectively. Moreover, in experiment [3], the Ki is 1.3 nM.

For the molecule `CS(=O)(=O)c1ccc(CCCCCCC(=O)c2ncc(-c3ccccn3)o2)cc1`, the Ratio IC50 in experiment [1] was 40; in experiment [2], more than 2000. Besides, the inhibition constant (Ki) in experiment [3] was determined as 19 nM.

Regarding `Cc1ccccc1CCCCCCC(=O)c1ncc(-c2ccccn2)o1`, the Ratio IC50 is 100 in experiment [1] and more than 3300 in experiment [2]. Also, in experiment [3], the Ki is 3 nM.

As for `O=C(CCCCCCc1cccnc1)c1ncc(-c2ccccn2)o1`, the Ratio IC50 is 50 in experiment [1] and more than 5000 in experiment [2]. Further, in experiment [3], the Ki came to 32 nM.

Consider `O=C(CCCCCCc1cccc(C(F)(F)F)c1)c1ncc(-c2ccccn2)o1`, for which the Ratio IC50 was 10 in experiment [1] and more than 5000 in experiment [2]. The Ki in experiment [3] was 1 nM.

`O=C(CCc1ccc(OCc2ccccc2)cc1)c1nc2ncccc2o1`: the Ratio IC50 in experiment [1] is 130; in experiment [2], 7000.

With `O=C(CCCCCCc1ccc([N+](=O)[O-])cc1)c1ncc(-c2ccccn2)o1`, the Ratio IC50 in experiment [1] was 100000; in experiment [2] it was more than 200000. The Ki in experiment [3] worked out at 6.5 nM.

In the case of `COC(=O)c1ccccc1CCCCCCC(=O)c1ncc(-c2ccccn2)o1`, the figures for the Ratio IC50 in experiment [1] and in experiment [2] were 25000 and more than 250000, respectively. Moreover, in experiment [3], the Ki came to 1 nM.

In the case of `O=C(CCc1ccc(OCc2ccccc2)cc1)c1ncc(-c2ccccn2)o1`, the values for the Ratio IC50 in experiment [1] and in experiment [2] were 8000 and more than 100000, respectively.

With `O=C(CCc1ccc(COc2ccccc2)cc1)c1ncc(-c2ccccn2)o1`, the Ratio IC50 in experiment [1] was 1000; in experiment [2], more than 50000.

For `COc1ccc(CCCCCCC(=O)c2ncc(-c3ccccn3)o2)cc1`, the Ratio IC50 in experiment [1] came out at 250. Further, the Selectivity ratio in experiment [2] is more than 5000. For the same molecule, in experiment [3], the Ki was 6.2 nM.

As for `CSc1ccc(CCCCCCC(=O)c2ncc(-c3ccccn3)o2)cc1`, the Ratio IC50 in experiment [1] is 40; in experiment [2], more than 5000. The inhibition constant (Ki) in experiment [3] was determined as 2.5 nM.

In the case of `O=C(CCCCCCc1ccccc1Cl)c1ncc(-c2ccccn2)o1`, the Ratio IC50 in experiment [1] is 30; in experiment [2], more than 5000. Further, the Ki in experiment [3] came out at 1.9 nM.

As to `O=C(CCc1ccc(Nc2ccccc2)cc1)c1ncc(-c2ccccn2)o1`, the Ratio IC50 was 120 in experiment [1] and more than 20000 in experiment [2].

As to `Cc1ccc(CCCCCCC(=O)c2ncc(-c3ccccn3)o2)cc1`, the Ratio IC50 was 125 in experiment [1] and more than 2500 in experiment [2]. Also, the Ki in experiment [3] was found to be 2.8 nM.

In the case of `O=C(CCCCCCc1cccs1)c1ncc(-c2ccccn2)o1`, the Ratio IC50 is 35 in experiment [1] and more than 5000 in experiment [2]. In experiment [3], the Ki worked out at 4.3 nM.

`COc1cccc(CCCCCCC(=O)c2ncc(-c3ccccn3)o2)c1`: the figures for the Ratio IC50 in experiment [1] and in experiment [2] were 50 and more than 5000, respectively. Further, in experiment [3], the Ki was found to be 2.5 nM.

As for `O=C(CCc1ccc(Cc2ccccc2)cc1)c1ncc(-c2ccccn2)o1`, the Ratio IC50 in experiment [1] was 300; in experiment [2] it was more than 33000.

As to `O=C(CCCCC#Cc1ccc([N+](=O)[O-])cc1)c1ncc(-c2ccccn2)o1`, in experiment [3], the Ki turned out to be 31 nM.

In the case of `O=C(CCCCC#Cc1ccccc1F)c1ncc(-c2ccccn2)o1`, in experiment [3], the Ki came out at 8 nM.

Regarding `O=C(CSCCCCc1ccccc1)c1ncc(-c2ccccn2)o1`, the Ki in experiment [3] was 4 nM.

On to `O=C(CCCCCCc1ccsc1)c1ncc(-c2ccccn2)o1`, for which the Ratio IC50 in experiment [1] is 27; in experiment [2], more than 3300. Besides, the Ki in experiment [3] amounted to 5.1 nM.

For `CS(=O)(=O)c1ccccc1CCCCCCC(=O)c1ncc(-c2ccccn2)o1`, the Ratio IC50 in experiment [1] was 30; in experiment [2], more than 1000. The Ki in experiment [3] came out at 37 nM.

In the case of `COc1ccccc1CCCCCCC(=O)c1ncc(-c2ccccn2)o1`, the values for the Ratio IC50 in experiment [1] and in experiment [2] were 500 and more than 10000, respectively. In addition, the Ki in experiment [3] was 5.8 nM.

Take `CN(CCCCCC(=O)c1ncc(-c2ccccn2)o1)c1ccccc1`: the Ki in experiment [3] worked out at 40 nM.

In the case of `CCCCCCc1cccc(CCCCCCC(=O)c2ncc(-c3ccccn3)o2)c1`, the Ratio IC50 in experiment [1] worked out at 250. In addition, the Selectivity ratio in experiment [2] is more than 1250. The Ki in experiment [3] was 15 nM.

For `O=C(CCCCC#Cc1ccc(Cl)cc1)c1ncc(-c2ccccn2)o1`, in experiment [3], the Ki stood at 20 nM.

On to `O=C(CCc1ccc(Sc2ccccc2)cc1)c1ncc(-c2ccccn2)o1`, for which the Ratio IC50 in experiment [1] is 30; in experiment [2], more than 50000.

`CN(CCCc1ccccc1)CCC(=O)c1ncc(-c2ccccn2)o1`: the Ki in experiment [3] came to 200 nM.

Turning to `O=C(CCCCCCc1cccc(F)c1)c1ncc(-c2ccccn2)o1`, the Ratio IC50 in experiment [1] is 100; in experiment [2] it was more than 10000. Besides, in experiment [3], the Ki is 2.2 nM.

For the molecule `O=C(CCCCC#Cc1ccccc1C(F)(F)F)c1ncc(-c2ccccn2)o1`, the Ki in experiment [3] is 16 nM.

Take `CN(CCCC(=O)c1ncc(-c2ccccn2)o1)CCc1ccccc1`: in experiment [3], the Ki was found to be 3500 nM.

For `Cc1cccc(CCCCCCC(=O)c2ncc(-c3ccccn3)o2)c1`, the Ratio IC50 in experiment [1] is 170; in experiment [2], more than 3300. Moreover, the Ki in experiment [3] was found to be 3.3 nM.

As to `COC(=O)c1cccc(C#CCCCCC(=O)c2ncc(-c3ccccn3)o2)c1`, the Ki in experiment [3] worked out at 30 nM.

Regarding `O=C(CCCCC#Cc1ccccc1[N+](=O)[O-])c1ncc(-c2ccccn2)o1`, the Ki in experiment [3] came to 17 nM.

For the molecule `CCCCCCc1ccc(CCCCCCC(=O)c2ncc(-c3ccccn3)o2)cc1`, the results for the Ratio IC50 in experiment [1] and in experiment [2] were 1000 and more than 3300, respectively. Besides, the Ki in experiment [3] came to 6.7 nM.

Take `CC(C)(C)OC(=O)Nc1ccc(C#CCCCCC(=O)c2ncc(-c3ccccn3)o2)cc1`: the Ki in experiment [3] worked out at 23 nM.

As to `CSc1ccccc1CCCCCCC(=O)c1ncc(-c2ccccn2)o1`, the Ratio IC50 in experiment [1] was 300; in experiment [2], more than 3300. Also, the Ki in experiment [3] worked out at 3.3 nM.

For the molecule `O=C(CCCCC(=O)c1ncc(-c2ccccn2)o1)Nc1ccccc1`, the Ki in experiment [3] was 3100 nM.

In the case of `O=C(c1ncc(-c2ccccn2)o1)C1CCCC1`, the Ki in experiment [3] was determined as 2500 nM.

Regarding `O=C(CCCCOCc1ccccc1)c1ncc(-c2ccccn2)o1`, in experiment [3], the Ki is 55 nM.

Consider `O=C(CCCCCCc1ccccc1F)c1ncc(-c2ccccn2)o1`, for which the Ratio IC50 was 17 in experiment [1] and more than 3300 in experiment [2]. In addition, the Ki in experiment [3] was determined as 1.7 nM.

For the molecule `O=C(CCCOCCc1ccccc1)c1ncc(-c2ccccn2)o1`, in experiment [3], the Ki is 63 nM.

In the case of `O=C(CCCCCCc1ccccn1)c1ncc(-c2ccccn2)o1`, the Ratio IC50 in experiment [1] is 33; in experiment [2] it was more than 3300. In addition, in experiment [3], the Ki turned out to be 120 nM.

For `O=C(CCCCC#Cc1cccc(Cl)c1)c1ncc(-c2ccccn2)o1`, the Ki in experiment [3] was 7 nM.

In the case of `O=C(CCCCCCc1ccc(F)cc1)c1ncc(-c2ccccn2)o1`, the Ratio IC50 in experiment [1] is 50; in experiment [2], more than 5000. In experiment [3], the inhibitory constant (Ki) turned out to be 3.2 nM.

In the case of `O=C(CCCCCCc1ccccc1C(=O)O)c1ncc(-c2ccccn2)o1`, the Ki in experiment [3] was more than 600 nM.

For the molecule `O=C(CCc1cccc(OCc2ccccc2)c1)c1ncc(-c2ccccn2)o1`, the values for the Ratio IC50 in experiment [1] and in experiment [2] were 20 and more than 1000, respectively.

Consider `COC(=O)CCCC(=O)c1ncc(-c2ccccn2)o1`, for which, in experiment [3], the Ki turned out to be 7000 nM.

As for `OC(CCCCCc1ccccc1)C(O)c1ncc(-c2ccccn2)o1` (stereo unspecified), in experiment [3], the Ki was determined as 2000 nM.
